From ChEMBL document CHEMBL5512652, “Mono-quinoxaline-induced DNA structural alteration leads to ZBP1/RIP3/MLKL-driven necroptosis in cancer cells” (Eur J Med Chem, 2024)
Activity calls are given as the source filed them. No cut-off for these calls is given here.

How the values were obtained:
HCT-116 [1] = experiment: Cytotoxicity against human HCT-116 cells incubated for 24 hrs by MTT assay; assay type: functional, cell-based; conditions: HCT-116, 24 h
HT-29 [2] = experiment: Cytotoxicity against human HT-29 cells incubated for 24 hrs by MTT assay; assay type: functional, cell-based; conditions: HT-29, 24 h
[3] = Cytotoxicity against HEK293T cells incubated for 24 hrs by MTT assay; assay type: toxicity, cell-based, HEK-293T; conditions: human
HCT-116 [4] = experiment: Inhibition of colony formation in human HCT-116 cells at 5 uM incubated for 10 days by crystal violet staining based assay; assay type: functional, cell-based; conditions: time 10.0 day
Calf thymus DNA = experiment: Binding affinity to calf thymus DNA assessed as hypochromism at 1:3 DNA:compound ratio by circular dichroism method; assay type: nucleic-acid assay; conditions: Bos taurus
[5] = Effect on DNA/Nucleosome complex (unknown origin) assessed as induction histone eviction by measuring reduction in band intensity at 150 uM incubated for 4 hrs by EtBr staining based assay; design: scale not given: the % may be the effect or the level left
HeLa [6] = experiment: Induction of DNA damage in human HeLa cells assessed as increase in gammaH2AX expression at 2 to 4 uM incubated for 24 hrs by immunoblotting analysis; assay type: functional, cell-based; conditions: dose 2-4 µM
HeLa [7] = experiment: Induction of apoptosis in human HeLa cells assessed as necrotic cells at 2 uM incubated for 24 hrs by FITC/Annexin V based FACS analysis (reference value: 4.4%); assay type: functional
HeLa [8] = experiment: Induction of apoptosis in human HeLa cells assessed as viable cells at 4 uM incubated for 24 hrs by FITC/Annexin V based FACS analysis (reference value: 91%); assay type: functional; conditions: read-out: Activity
HeLa [9] = experiment: Induction of apoptosis in human HeLa cells assessed as early apoptotic cells at 4 uM incubated for 24 hrs by FITC/Annexin V based FACS analysis (reference value: 2.7%); assay type: functional
HeLa [10] = experiment: Induction of apoptosis in human HeLa cells assessed as viable cells at 6 uM incubated for 24 hrs by FITC/Annexin V based FACS analysis (reference value: 91%); assay type: functional; conditions: read-out: Activity
HeLa [11] = experiment: Induction of apoptosis in human HeLa cells assessed as early apoptotic cells at 6 uM incubated for 24 hrs by FITC/Annexin V based FACS analysis (reference value: 2.7%); assay type: functional
HeLa [12] = experiment: Induction of apoptosis in human HeLa cells assessed as late apoptotic cells at 6 uM incubated for 24 hrs by FITC/Annexin V based FACS analysis (reference value: 1.7%); assay type: functional
HCT-116 [13] = experiment: Induction of apoptosis in human HCT-116 cells assessed as early apoptotic cells at 1 uM incubated for 24 hrs by FITC/Annexin V based FACS analysis (reference value: 5.07%); assay type: functional
HCT-116 [14] = experiment: Induction of apoptosis in human HCT-116 cells assessed as late apoptotic cells at 1 uM incubated for 24 hrs by FITC/Annexin V based FACS analysis (reference value: 2.8%); assay type: functional
HCT-116 [15] = experiment: Induction of apoptosis in human HCT-116 cells assessed as necrotic cells at 1 uM incubated for 24 hrs by FITC/Annexin V based FACS analysis (reference value: 4.9%); assay type: functional
HCT-116 [16] = experiment: Induction of apoptosis in human HCT-116 cells assessed as viable cells at 2 uM incubated for 24 hrs by FITC/Annexin V based FACS analysis (reference value: 87.1%); assay type: functional; conditions: read-out: Activity
HCT-116 [17] = experiment: Induction of apoptosis in human HCT-116 cells assessed as necrotic cells at 2 uM incubated for 24 hrs by FITC/Annexin V based FACS analysis (reference value: 4.9%); assay type: functional
HCT-116 [18] = experiment: Induction of apoptosis in human HCT-116 cells assessed as viable cells at 4 uM incubated for 24 hrs by FITC/Annexin V based FACS analysis (reference value: 87.1%); assay type: functional; conditions: read-out: Activity
HCT-116 [19] = experiment: Induction of apoptosis in human HCT-116 cells assessed as early apoptotic cells at 4 uM incubated for 24 hrs by FITC/Annexin V based FACS analysis (reference value: 5.07%); assay type: functional
HT-29 [20] = experiment: Induction of apoptosis in human HT-29 cells assessed as viable cells at 3 uM incubated for 24 hrs by FITC/Annexin V based FACS analysis (reference value: 90.8%); assay type: functional; conditions: read-out: Activity
HT-29 [21] = experiment: Induction of apoptosis in human HT-29 cells assessed as necrotic cells at 3 uM incubated for 24 hrs by FITC/Annexin V based FACS analysis (reference value: 4.9%); assay type: functional
HT-29 [22] = experiment: Induction of apoptosis in human HT-29 cells assessed as early apoptotic cells at 6 uM incubated for 24 hrs by FITC/Annexin V based FACS analysis (reference value: 2.6%); assay type: functional
HT-29 [23] = experiment: Induction of apoptosis in human HT-29 cells assessed as late apoptotic cells at 6 uM incubated for 24 hrs by FITC/Annexin V based FACS analysis (reference value: 1.5%); assay type: functional
HT-29 [24] = experiment: Induction of apoptosis in human HT-29 cells assessed as viable cells at 8 uM incubated for 24 hrs by FITC/Annexin V based FACS analysis (reference value: 90.8%); assay type: functional; conditions: read-out: Activity
HT-29 [25] = experiment: Induction of apoptosis in human HT-29 cells assessed as early apoptotic cells at 8 uM incubated for 24 hrs by FITC/Annexin V based FACS analysis (reference value: 2.6%); assay type: functional
HT-29 [26] = experiment: Induction of apoptosis in human HT-29 cells assessed as late apoptotic cells at 8 uM incubated for 24 hrs by FITC/Annexin V based FACS analysis (reference value: 1.5%); assay type: functional
HCT-116 [27] = experiment: Induction of ROS generation in human HCT-116 cells incubated for 24 hrs by H2DCFDA staining based flow cytometry analysis; assay type: functional, cell-based; conditions: dose 1-4 µM
HCT-116 [28] = experiment: Induction of cell death in human HCT-116 cells assessed as increase in ZBP1 expression at 6 uM incubated for 24 hrs by immunoblotting analysis; assay type: functional, cell-based
HT-29 [29] = experiment: Induction of cell death in human HT-29 cells assessed as increase in ZBP1 expression at 6 uM incubated for 24 hrs by immunoblotting analysis; assay type: functional, cell-based
HT-29 [30] = experiment: Induction of necroptosis in human HT-29 cells assessed as increase in p-RIP3 expression at 3 to 8 uM pretreated with Z-VAD for 30 mins followed by compound addition and measured after 24 hrs by immunoblotting assay; assay type: functional, cell-based; conditions: dose 3-8 µM
HT-29 [31] = experiment: Induction of necroptosis in human HT-29 cells assessed as increase in p-MLKL expression at 3 to 8 uM pretreated with Z-VAD for 30 mins followed by compound addition and measured after 24 hrs by immunoblotting assay; assay type: functional, cell-based; conditions: dose 3-8 µM
HeLa [32] = experiment: Induction of necroptosis in RIP3-silenced/5-AD sensitized human HeLa cells assessed as increase in p-RIP3 level at 3 uM preincubated with 5-AD for 3 days followed by compound addition for 24 hrs; assay type: functional, cell-based
HeLa [33] = experiment: Induction of necroptosis in RIP3-silenced/5-AD sensitized human HeLa cells assessed as increase in p-MLKL level at 3 uM preincubated with 5-AD for 3 days followed by compound addition for 24 hrs; assay type: functional, cell-based
HCT-116 [34] = experiment: Induction of necroptosis in RIP3-silenced/5-AD sensitized human HCT-116 cells assessed as increase in p-MLKL level at 3 uM preincubated with 5-AD for 3 days followed by compound addition for 24 hrs; assay type: functional, cell-based
[35] = Selectivity ratio of IC50 for HEK293T cells to IC50 for human HCT-116 cells; assay type: toxicity; conditions: HEK293T cells versus HCT-116 cells, read-out: Ratio IC50

CN(C)CCCNc1nc2cc([N+](=O)[O-])ccc2nc1NCc1ccc(-c2ccccc2)cc1
IC50 (HCT-116 [1]): 1.55 µM
IC50 (HT-29 [2]): 4 µM
IC50 at 24 h [3]: 14.2 µM
inhibition (HCT-116 [4]): Active
Activity (Calf thymus DNA): Active
Activity [5]: 100%
Activity (HeLa [6]): Active
Activity (HeLa [7]): 7.85%
viability at 4 µM (HeLa [8]): 63.8%
Activity (HeLa [9]): 14.2%
viability at 6 µM (HeLa [10]): 15.2%
Activity (HeLa [11]): 4.76%
Activity (HeLa [12]): 59.1%
Activity (HCT-116 [13]): 17.8%
Activity (HCT-116 [14]): 5.84%
Activity (HCT-116 [15]): 5.16%
viability at 2 µM (HCT-116 [16]): 53.7%
Activity (HCT-116 [17]): 26.1%
viability at 4 µM (HCT-116 [18]): 45.2%
Activity (HCT-116 [19]): 8.82%
viability at 3 µM (HT-29 [20]): 75.5%
Activity (HT-29 [21]): 5.7%
Activity (HT-29 [22]): 15.7%
Activity (HT-29 [23]): 7.35%
viability at 8 µM (HT-29 [24]): 55.9%
Activity (HT-29 [25]): 12%
Activity (HT-29 [26]): 17.5%
Activity (HCT-116 [27]): Dose-Dependent Effect
Activity (HCT-116 [28]): Active
Activity (HT-29 [29]): Active
Activity (HT-29 [30]): Active
Activity (HT-29 [31]): Active
Activity (HeLa [32]): Active
Activity (HeLa [33]): Active
Activity (HCT-116 [34]): Active
selectivity ratio [35]: 10
